9 compounds from patent US9840513B2 (AbbVie S.à.r.l., priority 2015, dated 2017) can be followed below.

The assay addresses T1, F508delCFTR cell surface expression in CFBE41o-F508delCFTR-HRP cells (Homo sapiens, UniProt P13569, DEL508-508).
T1 construct: fused on or other part: Horseradish peroxidase (HRP) reporter inserted in the fourth exofacial (extracellular) loop of CFTR; expression is doxycycline-inducible
The experiment in a line: Cell Surface Expression-Horse Radish Peroxidase (CSE-HRP) Assay. The settings on record: for EC50: CFBE41o-F508delCFTR-HRP cells, 18-24 hours at 33° C., 8-point curve, highest concentration 20 μM; for Maximum % activity (%): maximum at any tested concentration, normalized to on-plate positive control (3 μM). It counts as cell-based. In outline:
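CFBE41o- cells with HRP-tagged F508delCFTR, expression induced by 0.5 μg/mL doxycycline for 72 h at 37 °C, then compound for 18-24 h at 33 °C (8-point, 3-fold, top 20 μM). Surface HRP measured by luminol luminescence; % activity normalised to 3 μM positive-control corrector; EC50 from variable-slope sigmoidal fit, three replicate plates.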

T1 sequence (P13569 with tags, fused parts or gaps DEL508-508 limits assumed): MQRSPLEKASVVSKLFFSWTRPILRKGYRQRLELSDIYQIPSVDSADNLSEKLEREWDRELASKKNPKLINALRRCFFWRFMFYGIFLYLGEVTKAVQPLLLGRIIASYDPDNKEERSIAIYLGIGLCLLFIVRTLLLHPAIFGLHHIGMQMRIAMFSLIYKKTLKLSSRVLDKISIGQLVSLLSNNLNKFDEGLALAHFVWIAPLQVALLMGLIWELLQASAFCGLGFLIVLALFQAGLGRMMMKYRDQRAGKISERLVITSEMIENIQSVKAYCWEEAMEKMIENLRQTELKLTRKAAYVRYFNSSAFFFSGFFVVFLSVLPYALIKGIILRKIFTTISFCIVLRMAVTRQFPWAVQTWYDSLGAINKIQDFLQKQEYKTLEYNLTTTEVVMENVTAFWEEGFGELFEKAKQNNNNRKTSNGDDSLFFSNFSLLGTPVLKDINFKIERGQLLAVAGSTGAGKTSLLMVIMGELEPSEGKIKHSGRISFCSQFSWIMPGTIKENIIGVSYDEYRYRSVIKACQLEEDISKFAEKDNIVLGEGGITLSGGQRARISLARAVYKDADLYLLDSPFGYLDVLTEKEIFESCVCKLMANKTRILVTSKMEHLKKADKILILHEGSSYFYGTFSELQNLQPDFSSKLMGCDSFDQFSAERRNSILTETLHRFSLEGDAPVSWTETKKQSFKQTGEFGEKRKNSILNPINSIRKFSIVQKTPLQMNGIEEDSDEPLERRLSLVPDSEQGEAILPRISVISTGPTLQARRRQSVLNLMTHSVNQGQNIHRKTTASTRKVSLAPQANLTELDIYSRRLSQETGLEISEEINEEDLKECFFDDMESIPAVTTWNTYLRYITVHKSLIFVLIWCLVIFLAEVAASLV
T1 sequence (P13569 919-1480 limits assumed, stated change not applied): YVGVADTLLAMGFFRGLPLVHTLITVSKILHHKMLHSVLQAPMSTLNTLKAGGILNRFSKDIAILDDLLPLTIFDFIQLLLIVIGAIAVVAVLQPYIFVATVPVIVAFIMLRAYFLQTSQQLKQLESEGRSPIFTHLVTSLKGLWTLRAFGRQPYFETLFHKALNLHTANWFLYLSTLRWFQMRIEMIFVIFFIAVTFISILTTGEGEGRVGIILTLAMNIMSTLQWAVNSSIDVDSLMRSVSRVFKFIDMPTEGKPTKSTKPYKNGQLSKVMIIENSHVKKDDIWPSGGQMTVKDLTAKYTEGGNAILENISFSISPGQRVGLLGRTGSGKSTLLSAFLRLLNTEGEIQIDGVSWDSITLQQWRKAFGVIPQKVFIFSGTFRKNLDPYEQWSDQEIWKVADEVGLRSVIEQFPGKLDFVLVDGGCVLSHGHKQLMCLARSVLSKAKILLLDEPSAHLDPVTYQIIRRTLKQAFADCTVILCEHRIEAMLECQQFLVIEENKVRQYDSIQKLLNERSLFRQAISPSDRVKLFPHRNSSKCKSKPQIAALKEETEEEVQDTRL

The term EC50 denotes the midpoint of the concentration-response curve. High values mean lower potency in that assay, low ones higher potency in that assay. Turning to `COc1ccc2c(c1)O[C@@H](c1ccc(C(=O)N3CCN(S(N)(=O)=O)CC3)cn1)C[C@H]2NC(=O)[C@@]1(C)COc2cc3c(cc21)OC(F)(F)O3` [Example 233, (7R)-2,2-difluoro-N-{(2R,4R)-7-methoxy-2-[5-(4-sulfamoylpiperazine-1-carbonyl)pyridin-2-yl]-3,4-dihydro-2H-1-benzopyran-4-yl}-7-methyl-6,7-dihydro-2H-furo[2,3-f][1,3]benzodioxole-7-carboxamide], the 50% effective concentration (EC50) amounted to 50 nM and the “Maximum % activity (%)” value came to 112%.
With `CC1(C(=O)Nc2nnc(-c3ccc(C(=O)O)cc3)s2)COc2cc3c(cc21)OC(F)(F)O3` (stereo not drawn) [Example 53, 4-{5-[(2,2-difluoro-7-methyl-6,7-dihydro-2H-furo[2,3-f][1,3]benzodioxole-7-carbonyl)amino]-1,3,4-thiadiazol-2-yl}benzoic acid], the 50% effective concentration (EC50) was > 20000 nM and the “Maximum % activity (%)” value worked out at 1%.
In the same order, the values of `C[C@]1(C(=O)Nc2cccc(F)n2)COc2cc3c(cc21)OC(F)(F)O3` [Example 85, (7R)-2,2-difluoro-N-(6-fluoropyridin-2-yl)-7-methyl-6,7-dihydro-2H-furo[2,3-f][1,3]benzodioxole-7-carboxamide] are 6690 nM and 90%.
The corresponding values for `COc1ccc2c(c1)O[C@@H](c1ccc(C(=O)N(CCO)CCO)cn1)C[C@H]2NC(=O)[C@@]1(C)COc2cc3c(cc21)OC(F)(F)O3` [Example 236, 6-[(2R,4R)-4-{[(7R)-2,2-difluoro-7-methyl-6,7-dihydro-2H-furo[2,3-f][1,3]benzodioxole-7-carbonyl]amino}-7-methoxy-3,4-dihydro-2H-1-benzopyran-2-yl]-N,N-bis(2-hydroxyethyl)pyridine-3-carboxamide] are 70 nM and 131%.
For `CC1(C(=O)Nc2nc(-c3ccc(C#N)cc3)cs2)COc2cc3c(cc21)OC(F)(F)O3` (stereo not drawn) [Example 63, N-[4-(4-cyanophenyl)-1,3-thiazol-2-yl]-2,2-difluoro-7-methyl-6,7-dihydro-2H-furo[2,3-f][1,3]benzodioxole-7-carboxamide], the concentration giving a half-maximal response (EC50) came out at 8640 nM and the “Maximum % activity (%)” value was found to be 41%.
Regarding “(7R)—N-[6-(3-benzylpyrrolidin-1-yl)pyridin-2-yl]-2,2-difluoro-7-methyl-6,7-dihydro-2H-furo[2,3-f][1,3]benzodioxole-7-carboxamide [Example 113]”, it took 1110 nM to reach a half-maximal effect (EC50) and the “Maximum % activity (%)” value came to 83%.
`COC(=O)c1ccc([C@H]2C[C@@H](NC(=O)[C@@]3(C)COc4cc5c(cc43)OC(F)(F)O5)c3ccc(OC)cc3O2)nc1` [Example 89E, methyl 6-[(2R,4R)-4-{[(7R)-2,2-difluoro-7-methyl-6,7-dihydro-2H-furo[2,3-f][1,3]benzodioxole-7-carbonyl]amino}-7-methoxy-3,4-dihydro-2H-1-benzopyran-2-yl]pyridine-3-carboxylate]: the EC50 is 18 nM and the “Maximum % activity (%)” value is given as 116%.
In the case of `Cc1ccc(NC(=O)C2(C)COc3cc4c(cc32)OC(F)(F)O4)nc1-c1cccc(C(=O)OC(C)(C)C)c1` (stereo not drawn) [Example 1, tert-butyl 3-{6-[(2,2-difluoro-7-methyl-6,7-dihydro-2H-furo[2,3-f][1,3]benzodioxole-7-carbonyl)amino]-3-methylpyridin-2-yl}benzoate], a half-maximal response (EC50) required 2050 nM and the “Maximum % activity (%)” value was determined as 100%.
The corresponding values for `C[C@]1(C(=O)N[C@@H]2C[C@H]([C@H]3CC[C@H](C(=O)N(CCO)CCO)CC3)Oc3cc(OC(F)(F)F)ccc32)COc2cc3c(cc21)OC(F)(F)O3` [Example 254, (7R)—N-[(2R,4R)-2-{trans-4-[bis(2-hydroxyethyl)carbamoyl]cyclohexyl}-7-(trifluoromethoxy)-3,4-dihydro-2H-1-benzopyran-4-yl]-2,2-difluoro-7-methyl-6,7-dihydro-2H-furo[2,3-f][1,3]benzodioxole-7-carboxamide] are 80 nM and 136%.
